Each structure is given as a SMILES string.

This passage reports IC50 results from patent US20240059677A1, “SUBSTITUTED PYRIMIDINE DERIVATIVES AS NICOTINIC ACETYLCHOLINESTERASE RECEPTOR ALPHA 6 MODULATOR” (priority 2020, published 2024).

In the first assay the target is T1, human nAChRα6-α3 chimera, in addition to β2 and β3^V273S subunits (Homo sapiens, UniProt P32297+Q15825).
T1 construct: expressed in transfected cells
T1 sequence (Q05901 25-458 V273S): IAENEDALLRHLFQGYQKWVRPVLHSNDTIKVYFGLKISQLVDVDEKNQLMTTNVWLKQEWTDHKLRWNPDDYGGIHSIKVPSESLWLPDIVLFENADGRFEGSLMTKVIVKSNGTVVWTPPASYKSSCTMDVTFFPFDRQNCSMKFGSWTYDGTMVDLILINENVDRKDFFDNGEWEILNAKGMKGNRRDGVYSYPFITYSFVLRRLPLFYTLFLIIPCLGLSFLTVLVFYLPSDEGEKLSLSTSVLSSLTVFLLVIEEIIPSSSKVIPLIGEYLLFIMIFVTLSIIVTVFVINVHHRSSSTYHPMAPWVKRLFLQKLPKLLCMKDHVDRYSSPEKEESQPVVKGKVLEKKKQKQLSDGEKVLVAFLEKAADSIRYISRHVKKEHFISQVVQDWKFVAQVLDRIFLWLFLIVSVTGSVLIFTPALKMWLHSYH
T1 sequence (P17787 26-502, stated change not applied, further chain): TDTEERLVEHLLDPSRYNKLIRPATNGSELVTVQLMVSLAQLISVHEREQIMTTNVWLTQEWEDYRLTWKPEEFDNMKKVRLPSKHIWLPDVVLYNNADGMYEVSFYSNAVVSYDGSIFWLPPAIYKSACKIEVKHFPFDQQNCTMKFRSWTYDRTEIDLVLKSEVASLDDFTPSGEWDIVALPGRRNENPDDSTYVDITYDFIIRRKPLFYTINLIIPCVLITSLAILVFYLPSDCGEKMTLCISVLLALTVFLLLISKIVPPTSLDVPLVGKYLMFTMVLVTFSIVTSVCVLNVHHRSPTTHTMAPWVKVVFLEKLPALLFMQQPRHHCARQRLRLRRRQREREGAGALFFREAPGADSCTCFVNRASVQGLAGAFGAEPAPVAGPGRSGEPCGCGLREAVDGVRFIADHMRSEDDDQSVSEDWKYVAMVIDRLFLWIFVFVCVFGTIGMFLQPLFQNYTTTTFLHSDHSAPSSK
T1 sequence (Q15825+P32297 fused with the stated changes): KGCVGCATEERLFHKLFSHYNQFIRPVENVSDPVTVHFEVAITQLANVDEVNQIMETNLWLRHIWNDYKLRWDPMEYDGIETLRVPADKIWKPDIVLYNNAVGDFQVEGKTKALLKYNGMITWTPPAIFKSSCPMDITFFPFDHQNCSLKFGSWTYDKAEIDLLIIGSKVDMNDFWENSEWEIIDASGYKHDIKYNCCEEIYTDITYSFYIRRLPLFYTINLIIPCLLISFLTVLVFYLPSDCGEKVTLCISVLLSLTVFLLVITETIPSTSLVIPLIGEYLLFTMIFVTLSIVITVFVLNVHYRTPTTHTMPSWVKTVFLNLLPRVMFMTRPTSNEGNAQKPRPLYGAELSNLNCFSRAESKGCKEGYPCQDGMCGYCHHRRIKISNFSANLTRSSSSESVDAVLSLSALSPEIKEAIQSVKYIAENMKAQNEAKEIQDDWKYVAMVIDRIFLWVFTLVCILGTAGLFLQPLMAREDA
Put plainly: fluorescence-based calcium assay: inhibition of nicotine stimulated nAChRα6 activity (FLIPR). The conditions noted are these: HEK cell line stably expressing the receptor; 10 min pre-incubation, nicotine EC80; 10-point curve, duplicate wells; read-out: IC50. An outline of the steps: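 HEK cells stably expressing the human α6-α3 chimera with β2 and β3^V273S were loaded with calcium dye at 30° C. Compounds were pre-incubated for 10 min before nicotine at EC80, and the fluorescence change was read on a FLIPR. Ten-point half-log concentration-response, duplicate wells.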
In general, IC50 refers to the concentration needed to halve the response being measured. With `COc1ccc(-c2cnc(NCC3CCCN(C)C3)nc2C)c(F)c1` (centres unmarked) [Example 30, 5-(2-fluoro-4-methoxyphenyl)-4-methyl-N-((1-methylpiperidin-3-yl)methyl) pyrimidin-2-amine], the IC50 worked out at 0.082 µM. On to `Cc1nc(NCC2CN(C)CCO2)ncc1-c1ccc(C(F)(F)F)cc1F` (centres unmarked) [Example 108, 5-(2-fluoro-4-(trifluoromethyl)phenyl)-4-methyl-N-((4-methylmorpholin-2-yl)methyl)pyrimidin-2-amine], for which the concentration for half-maximal inhibition (IC50) turned out to be 0.043 µM. Same read-out and setting: next, `Cc1nc(NC(=O)[C@@H]2CCCN2C)ncc1-c1ccc(C(F)(F)F)cc1F` [Example 140, (S)—N-(5-(2-fluoro-4-(trifluoromethyl)phenyl)-4-methyl-pyrimidin-2-yl)-1-methylpyrrolidine-2-carboxamide]: 0.079 µM.

`Cc1nc(NC[C@@]2(C)CCCN2)ncc1-c1ccc(C(F)(F)F)cc1F` [Example 135, (R)-5-(2-fluoro-4-(trifluoromethyl)phenyl)-4-methyl-N-((2-methyl-pyrrolidin-2-yl)methyl)pyrimidin-2-amine]: the half-inhibitory concentration (IC50) came to 0.07 µM. Regarding `O=C(O)/C=C/C(=O)O.[2H]C([2H])([2H])N1CCC[C@@H]1CNc1ncc(-c2ccc(C(F)(F)F)cc2F)c(C)n1` [Example 117, (R)-5-(2-fluoro-4-(trifluoromethyl)phenyl)-4-methyl-N-((1-(trideuteriomethyl)pyrrolidin-2-yl)methyl)pyrimidin-2-amine], the IC50 was 0.025 µM.

Take `Cc1nc(N[C@H]2CCNC[C@@H]2F)ncc1-c1ccc(C(F)(F)F)cc1F` [Example 124, 5-(2-fluoro-4-(trifluoromethyl)phenyl)-N-((3S,4S)-3-fluoropiperidin-4-yl)-4-methyl-pyrimidin-2-amine]: the IC50 was determined as 0.903 µM. Regarding `Cc1nc(N[C@@H]2CNC[C@H]2O)ncc1-c1ccc(C(F)(F)F)cc1F` [Example 115, (3R,4R)-4-((5-(2-fluoro-4-(trifluoromethyl)phenyl)-4-methyl-pyrimidin-2-yl)amino)pyrrolidin-3-ol], the IC50 is 0.121 µM. The same measure, in the same setting: with `Cc1nc(N[C@H]2CCCC[C@@H]2N(C)C)ncc1-c1ccc(C(F)(F)F)cc1F` [Example 109, (1S,2S)—N^1-(5-(2-fluoro-4-(trifluoromethyl)phenyl)-4-methyl-pyrimidin-2-yl)-N^2,N^2-dimethyl-cyclohexane-1,2-diamine] the figure was 0.096 µM.

Take `Cc1nc(NC(C)[C@H]2CCCN2)ncc1-c1ccc(C(F)(F)F)cc1F` (single isomer, unassigned) [Example 129a, 5-(2-fluoro-4-(trifluoromethyl)phenyl)-4-methyl-N-((1*R)-1-((2R)-pyrrolidin-2-yl)ethyl)pyrimidin-2-amine]: the IC50 came to 0.065 µM.

Take `COc1ccc(-c2cnc(NCC3CCCOC3)nc2C)c(F)c1` (centres unmarked) [Example 51, 5-(2-fluoro-4-methoxyphenyl)-4-methyl-N-((tetrahydro-2H-pyran-3-yl)methyl)pyrimidin-2-amine]: the IC50 came out at 1.1 µM. Still for that read-out and setting: next, `Cc1nc(NCC2CCCN(C)C2)ncc1-c1ccc(C(F)(F)F)cc1F` (centres unmarked) [Example 107, 5-(2-fluoro-4-(trifluoromethyl)phenyl)-4-methyl-N-((1-methyl-3-piperidinyl)methyl)pyrimidin-2-amine]: 0.154 µM.

`Cc1nc(NC[C@H]2NCC[C@@H]2F)ncc1-c1ccc(C(F)(F)F)cc1F` (single isomer, unassigned) [Example 133a, 5-(2-fluoro-4-(trifluoromethyl)phenyl)-N-(((2*S,3*R)-3-fluoropyrrolidin-2-yl)methyl)-4-methyl-pyrimidin-2-amine]: the half-inhibitory concentration (IC50) stood at 0.305 µM.

`Cc1nc(NC2CCCN(C(C)C)C2)ncc1-c1ccc(F)cc1F` (centres unmarked) [Example 72, 5-(2,4-difluorophenyl)-N-(1-isopropylpiperidin-3-yl)-4-methyl-pyrimidin-2-amine]: the IC50 stood at 0.052 µM. In the case of `Cc1nc(NC[C@@H]2CN(C)CCO2)ncc1-c1ccc(C(F)(F)F)cc1F` (single isomer, unassigned) [Example 108a], the IC50 is 0.086 µM. For the compound `COc1ccc(-c2cnc(NCC3CN(C)CCO3)nc2C)c(F)c1` (centres unmarked) [Example 36, 5-(2-fluoro-4-methoxyphenyl)-4-methyl-N-((4-methylmorpholin-2-yl)methyl)pyrimidin-2-amine], the IC50 amounted to 0.14 µM. On to `COc1ccc(-c2cnc(NCC3COCCN3C)nc2C)c(F)c1` (centres unmarked) [Example 32, 5-(2-fluoro-4-methoxyphenyl)-4-methyl-N-((4-methylmorpholin-3-yl)methyl)pyrimidin-2-amine], for which the IC50 came out at 0.099 µM. On the same count and under the same terms, next, `Cc1nc(N[C@H]2CCC[C@H](N)C2)ncc1-c1ccc(C(F)(F)F)cc1F` [Example 125, (1S,3S)—N^1-(5-(2-fluoro-4-(trifluoromethyl)phenyl)-4-methyl-pyrimidin-2-yl)cyclohexane-1,3-diamine]: 0.223 µM; `[2H]C([2H])([2H])N1CCC[C@H]1CNc1ncc(-c2ccc(F)cc2F)c(C)n1` [Example 90a, (S)-5-(2,4-difluorophenyl)-4-methyl-N-((1-(trideuteriomethyl)pyrrolidin-2-yl)methyl)pyrimidin-2-amine]: 0.211 µM; `COc1ccc(-c2cnc(NCCC3CCCN3C)nc2C#N)c(F)c1` (centres unmarked) [Example 27, 5-(2-fluoro-4-methoxyphenyl)-2-((2-(1-methylpyrrolidin-2-yl)ethyl)amino) pyrimidine-4-carbonitrile]: 0.056 µM. On the same count and under the same terms, with `COc1ccc(-c2nnc(NCC3CCCCN3C)nc2C)c(F)c1` (centres unmarked) [Example 26, 6-(2-fluoro-4-methoxyphenyl)-5-methyl-N-((1-methylpiperidin-2-yl)methyl)-1,2,4-triazin-3-amine] the figure was 0.156 µM; with `COc1ccc(-c2nnc(NC3CCCN(C(C)C)C3)nc2C)c(F)c1` (single isomer, unassigned) [Example 76b, 6-(2-fluoro-4-methoxyphenyl)-N-(1-isopropylpiperidin-3-yl)-5-methyl-1,2,4-triazin-3-amine], 0.107 µM; with `COc1ccc(-c2cnc(NC3CCCOC3)nc2C)c(F)c1` (centres unmarked) [Example 46, 5-(2-fluoro-4-methoxyphenyl)-4-methyl-N-(tetrahydro-2H-pyran-3-yl) pyrimidin-2-amine], 2.18 µM. `Cc1nc(NCC2N(C)CCC2(F)F)ncc1-c1ccc(F)cc1F` (single isomer, unassigned) [Example 84b, N-((3,3-difluoro-1-methylpyrrolidin-2-yl)methyl)-5-(2,4-difluorophenyl)-4-methyl-pyrimidin-2-amine]: the concentration for half-maximal inhibition (IC50) came out at 1.65 µM. As for `COc1ccc(-c2cnc(NCC3CCCN3C)nc2C)c(F)c1` (single isomer, unassigned) [Example 28a, 5-(2-fluoro-4-methoxyphenyl)-4-methyl-N-((1-methylpyrrolidin-2-yl)methyl)pyrimidin-2-amine], the IC50 was 0.054 µM.

`COc1ccc(-c2cnc(NC3CCC(N(C)C)C3)nc2C#N)c(F)c1` (single isomer, unassigned) [Example 38b, 2-((3-(dimethylamino)cyclopentyl)amino)-5-(2-fluoro-4-methoxyphenyl) pyrimidine-4-carbonitrile]: the half-inhibitory concentration (IC50) turned out to be 0.07 µM. Same read-out and setting: next, `Cc1nc(NC(C)[C@H]2CCCN2C)ncc1-c1ccc(C(F)(F)F)cc1F` (single isomer, unassigned) [Example 131b, 5-(2-fluoro-4-(trifluoromethyl)phenyl)-4-methyl-N-((1*S)-1-((2R)-1-methylpyrrolidin-2-yl)ethyl)pyrimidin-2-amine]: 0.291 µM; `CN1CCCC1CCNc1ncc(-c2ccccc2)cn1` (centres unmarked) [Example 2, N-(2-(1-methylpyrrolidin-2-yl)ethyl)-5-phenylpyrimidin-2-amine]: 0.302 µM; `Cc1nc(NCC2(N(C)C)CCCC2)ncc1-c1ccc(F)cc1F` [Example 11, 5-(2,4-difluorophenyl)-N-((1-(dimethylamino)cyclopentyl)methyl)-4-methyl-pyrimidin-2-amine]: 0.246 µM. Take `COc1ccc(-c2cnc(NC3CCC(N(C)C)C3)nc2C)c(F)c1` (single isomer, unassigned) [Example 44a, N^1-(5-(2-fluoro-4-methoxyphenyl)-4-methyl-pyrimidin-2-yl)-N^3,N^3-dimethylcyclopentane-1,3-diamine]: the 50% inhibitory concentration (IC50) was determined as 0.076 µM.

As to `Cc1nc(NCC2CCCCN2)ncc1-c1ccc(C(F)(F)F)cc1F` (centres unmarked) [Example 104, 5-(2-fluoro-4-(trifluoromethyl)phenyl)-4-methyl-N-(2-piperidinylmethyl) pyrimidin-2-amine], the concentration for half-maximal inhibition (IC50) was found to be 0.027 µM. On the same count and under the same terms, next, `Cc1nc(NC[C@H]2CCCNC2)ncc1-c1ccc(C(F)(F)F)cc1F` [Example 127, (S)-5-(2-fluoro-4-(trifluoromethyl)phenyl)-4-methyl-N-(piperidin-3-ylmethyl)pyrimidin-2-amine]: 0.119 µM.

The assay is the same for the next values; noted with them: IC50 (μM), HEK cell line stably expressing the receptor; 10 min pre-incubation, nicotine EC80; 10-point curve, duplicate wells.
For the compound `Cc1nc(NC[C@@H]2CCCCN2)ncc1-c1ccc(C(F)(F)F)cc1F` [Example 104b, (S)-5-(2-fluoro-4-(trifluoromethyl)phenyl)-4-methyl-N-(2-piperidinylmethyl)pyrimidin-2-amine], the concentration for half-maximal inhibition (IC50) was 0.045 µM. For `CCN1CCCCC1CNc1ncc(-c2ccc(F)cc2F)c(C)n1` (centres unmarked) [Example 10, 5-(2,4-difluorophenyl)-N-((1-ethylpiperidin-2-yl)methyl)-4-methyl-pyrimidin-2-amine], the half-inhibitory concentration (IC50) is 0.201 µM. On the same count and under the same terms, with `Cc1nc(NC[C@@]2(C)CCCN2C)ncc1-c1ccc(C(F)(F)F)cc1F` [Example 137, (R)—N-((1,2-dimethylpyrrolidin-2-yl)methyl)-5-(2-fluoro-4-(trifluoromethyl)phenyl)-4-methyl-pyrimidin-2-amine] the figure was 0.11 µM. On the same count and under the same terms, with `Cc1nc(N[C@H]2CCCNC2)ncc1-c1ccc(C(F)(F)F)cc1F` [Example 116, (S)-5-(2-fluoro-4-(trifluoromethyl)phenyl)-4-methyl-N-(3-piperidinyl) pyrimidin-2-amine] the figure was 0.127 µM.
